Results on nine molecules are retold here after patent US20260070945A1, “MACROCYCLIC IMMUNOMODULATORS” (Bristol-Myers Squibb Company, priority 2022, published 2026).

Where a SMILES comes first, the peptide text is derived from it. Bridges are numbered along the chain shown (N, C = ends). [ ]: non-standard residue; d: D form. The star is where a group is joined. ξ: configuration not given here. Phe(4-COOH) = N[C@@H](Cc1ccc(C(=O)O)cc1)C(=O)O; Bip = N[C@@H](Cc1ccc(-c2ccccc2)cc1)C(=O)O; Phe(3-Me) = Cc1cccc(C[C@H](N)C(=O)O)c1; Val(3-OH) = CC(C)(O)[C@H](N)C(=O)O; 4Pal = N[C@@H](Cc1ccncc1)C(=O)O; 3Thi = N[C@@H](Cc1ccsc1)C(=O)O; Cha = N[C@@H](CC1CCCCC1)C(=O)O; Ile(3ξ) = CCC(C)[C@H](N)C(=O)O; Thr(3ξ) = CC(O)[C@H](N)C(=O)O; Carboxymethyl = O=C(O)C*; NMeA = CN[C@@H](C)C(=O)O; Orn = NCCC[C@H](N)C(=O)O; Aun = NCCCCCCCCCCC(=O)O; Dab = NCC[C@H](N)C(=O)O; AEEA = NCCOCCOCC(=O)O

The target of the assay is T1, PD-1/PD-L1 interaction (PE-labeled human PD-L1-Ig binding to Jurkat cell line over-expressing human PD-1) (Homo sapiens, UniProt Q15116).
T1 construct: expressed in transfected cells; host or cells: Jurkat
T1 sequence (Q15116 25-288): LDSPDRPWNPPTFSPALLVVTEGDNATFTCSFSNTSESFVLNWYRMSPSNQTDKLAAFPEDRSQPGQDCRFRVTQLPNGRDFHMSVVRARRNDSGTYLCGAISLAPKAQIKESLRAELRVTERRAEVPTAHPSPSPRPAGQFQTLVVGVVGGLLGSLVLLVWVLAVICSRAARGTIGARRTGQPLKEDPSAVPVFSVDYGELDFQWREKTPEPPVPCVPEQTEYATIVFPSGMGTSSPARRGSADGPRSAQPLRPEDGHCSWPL
Description: Jurkat-PD-1 Cell Binding High-Content Screening Assay (CBA). The following applies: PE-labeled PD-L1-Ig 20 nM final, Jurkat-hPD-1 cells; read-out: Jurkat HPD1 PDL1 IC50. In a few lines: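 High-content imaging read-out of PE-PD-L1-Ig binding (20 nM final, 1 h) to Jurkat-hPD-1 cells, after 2 h compound exposure at 37 °C in DMEM with 10% FCS. Nuclei counterstained with Hoechst 33342 after paraformaldehyde fixation.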
Regarding `Cc1cccc(C[C@@H]2NC(=O)[C@H](CC(=O)O)NC(=O)[C@H](Cc3ccc(OCC(=O)O)cc3)NC(=O)[C@H](Cc3ccncc3)NC(=O)CSC[C@@H](C(=O)N[C@@H](CO)C(=O)NCCOCCOCC(=O)NCCCCCCCCCCC(=O)O)NC(=O)[C@H](CCC(=O)O)NC(=O)[C@H](C(C)(C)O)NC(=O)[C@H](CC3CCCCC3)NC(=O)[C@H](CCN)NC(=O)[C@@H](CC(C)C)NC(=O)[C@H](C)N(C)C(=O)[C@H](Cc3ccc(C(=O)O)cc3)NC(=O)[C@H](Cc3ccc(-c4ccccc4)cc3)NC(=O)[C@H](Cc3ccc(C(=O)O)cc3)NC2=O)c1` [Example 2496] ({CH2CO}-[4Pal]Y(Carboxymethyl)D[Phe(3-Me)][Phe(4-COOH)][Bip][Phe(4-COOH)][NMeA][dL][Dab][Cha][Val(3-OH)]ECS[AEEA][Aun]-OH; thioether N-14), the concentration for half-maximal inhibition (IC50) (usually the point on the concentration scale where inhibition reaches its midpoint) was found to be 67.1 nM.

For the molecule `Cc1cccc(C[C@@H]2NC(=O)[C@H](CC(=O)O)NC(=O)[C@H](Cc3ccc(OCC(=O)O)cc3)NC(=O)[C@H](Cc3ccncc3)NC(=O)CSC[C@@H](C(=O)N[C@@H](CCCN)C(=O)NCCOCCOCC(=O)NCCCCCCCCCCC(=O)O)NC(=O)[C@H](CCC(=O)O)NC(=O)[C@H](C(C)(C)O)NC(=O)[C@H](CC3CCCCC3)NC(=O)[C@H](CCN)NC(=O)[C@@H](CC(C)C)NC(=O)[C@H](C)N(C)C(=O)[C@H](Cc3ccc(C(=O)O)cc3)NC(=O)[C@H](Cc3ccc(-c4ccccc4)cc3)NC(=O)[C@H](Cc3ccc(C(=O)O)cc3)NC2=O)c1` [Example 2497] ({CH2CO}-[4Pal]Y(Carboxymethyl)D[Phe(3-Me)][Phe(4-COOH)][Bip][Phe(4-COOH)][NMeA][dL][Dab][Cha][Val(3-OH)]EC[Orn][AEEA][Aun]-OH; thioether N-14), the IC50 is 32.5 nM.

Take `Cc1cccc(C[C@@H]2NC(=O)[C@H](CC(=O)O)NC(=O)[C@H](Cc3ccc(C(=O)O)cc3)NC(=O)[C@H](Cc3ccncc3)NC(=O)CSC[C@@H](C(=O)N[C@@H](CCCN)C(=O)NCCOCCOCC(=O)NCCCCCCCCCCC(=O)O)NC(=O)[C@H](CCC(=O)O)NC(=O)[C@H](C(C)(C)O)NC(=O)[C@H](CC3CCCCC3)NC(=O)[C@H](Cc3cnc[nH]3)NC(=O)[C@@H](CC(C)C)NC(=O)[C@H](C)N(C)C(=O)[C@H](Cc3ccc(C(=O)O)cc3)NC(=O)[C@H](Cc3ccc(-c4ccccc4)cc3)NC(=O)[C@H](Cc3ccc(C(=O)O)cc3)NC2=O)c1` [Example 2498] ({CH2CO}-[4Pal][Phe(4-COOH)]D[Phe(3-Me)][Phe(4-COOH)][Bip][Phe(4-COOH)][NMeA][dL]H[Cha][Val(3-OH)]EC[Orn][AEEA][Aun]-OH; thioether N-14): the IC50 amounted to 36.2 nM.

On to `Cc1cccc(C[C@@H]2NC(=O)[C@H](CC(=O)O)NC(=O)[C@H](Cc3ccc(C(=O)O)cc3)NC(=O)[C@H](C(C)O)NC(=O)CSC[C@@H](C(=O)N[C@@H](CCCN)C(=O)NCCOCCOCC(=O)NCCCCCCCCCCC(=O)O)NC(=O)[C@H](CCC(=O)O)NC(=O)[C@H](C(C)(C)O)NC(=O)[C@H](CC3CCCCC3)NC(=O)[C@H](CCN)NC(=O)[C@@H](CC(C)C)NC(=O)[C@H](C)N(C)C(=O)[C@H](Cc3ccc(C(=O)O)cc3)NC(=O)[C@H](Cc3ccc(-c4ccccc4)cc3)NC(=O)[C@H](Cc3ccc(C(=O)O)cc3)NC2=O)c1` (stereo partly drawn) [Example 2499] ({CH2CO}-[Thr(3ξ)][Phe(4-COOH)]D[Phe(3-Me)][Phe(4-COOH)][Bip][Phe(4-COOH)][NMeA][dL][Dab][Cha][Val(3-OH)]EC[Orn][AEEA][Aun]-OH; thioether N-14), for which the IC50 worked out at 78 nM.

Turning to `Cc1cccc(C[C@@H]2NC(=O)[C@H](CC(=O)O)NC(=O)[C@H](Cc3ccc(C(=O)O)cc3)NC(=O)[C@H](Cc3ccsc3)NC(=O)CSC[C@@H](C(=O)N[C@@H](CCN)C(=O)NCCOCCOCC(=O)NCCOCCOCC(=O)NCCCCCCCCCCC(=O)O)NC(=O)[C@H](CCC(=O)O)NC(=O)[C@H](C(C)(C)O)NC(=O)[C@H](CC3CCCCC3)NC(=O)[C@H](CCN)NC(=O)[C@@H](CC(C)C)NC(=O)[C@H](C)N(C)C(=O)[C@H](Cc3ccc(OCC(=O)O)cc3)NC(=O)[C@H](Cc3ccc(-c4ccccc4)cc3)NC(=O)[C@H](Cc3ccc(OCC(=O)O)cc3)NC2=O)c1` [Example 2500] ({CH2CO}-[3Thi][Phe(4-COOH)]D[Phe(3-Me)]Y(Carboxymethyl)[Bip]Y(Carboxymethyl)[NMeA][dL][Dab][Cha][Val(3-OH)]EC[Dab][AEEA][AEEA][Aun]-OH; thioether N-14), the IC50 came to 19.5 nM.

In the case of `Cc1cccc(C[C@@H]2NC(=O)[C@H](CC(=O)O)NC(=O)[C@H](Cc3ccc(OCC(=O)O)cc3)NC(=O)[C@H](Cc3ccncc3)NC(=O)CSC[C@@H](C(=O)N[C@@H](CCN)C(=O)NCCOCCOCC(=O)NCCOCCOCC(=O)NCCCCCCCCCCC(=O)O)NC(=O)[C@H](CCC(=O)O)NC(=O)[C@H](C(C)C)NC(=O)[C@H](CC3CCCCC3)NC(=O)[C@H](CCN)NC(=O)[C@@H](CC(C)C)NC(=O)[C@H](C)N(C)C(=O)[C@H](Cc3ccc(C(=O)O)cc3)NC(=O)[C@H](Cc3ccc(-c4ccccc4)cc3)NC(=O)[C@H](Cc3ccc(C(=O)O)cc3)NC2=O)c1` [Example 2501] ({CH2CO}-[4Pal]Y(Carboxymethyl)D[Phe(3-Me)][Phe(4-COOH)][Bip][Phe(4-COOH)][NMeA][dL][Dab][Cha]VEC[Dab][AEEA][AEEA][Aun]-OH; thioether N-14), the IC50 turned out to be 253 nM.

Consider `CCC(C)[C@@H]1NC(=O)[C@H](Cc2ccc(-c3ccccc3)cc2)NC(=O)[C@H](CC(C)C)NC(=O)[C@H](Cc2c[nH]c3ccccc23)NC(=O)[C@H](CC(=O)O)NC(=O)[C@H](Cc2ccc(OCC(=O)O)cc2)NC(=O)[C@H](Cc2ccncc2)NC(=O)CSC[C@@H](C(=O)N[C@@H](CCN)C(=O)NCCOCCOCC(=O)NCCCCCCCCCCC(=O)O)NC(=O)[C@H](CO)NC(=O)[C@H](C(C)(C)O)NC(=O)[C@H](CC2CCCCC2)NC(=O)[C@H](CCN)NC(=O)[C@@H](CC(C)C)NC(=O)[C@H](C)N(C)C1=O` (stereo partly drawn) [Example 2502] ({CH2CO}-[4Pal]Y(Carboxymethyl)DWL[Bip][Ile(3ξ)][NMeA][dL][Dab][Cha][Val(3-OH)]SC[Dab][AEEA][Aun]-OH; thioether N-14), for which the IC50 turned out to be 148 nM.

Consider `CC(=O)NCCCC[C@@H]1NC(=O)[C@H](C(C)C)NC(=O)[C@H](CC2CCCCC2)NC(=O)[C@H](CCN)NC(=O)[C@@H](CC(C)C)NC(=O)[C@H](C)N(C)C(=O)[C@H](CCC(N)=O)NC(=O)[C@H](Cc2ccc(-c3ccccc3)cc2)NC(=O)[C@H](CC(C)C)NC(=O)[C@H](Cc2c[nH]c3ccccc23)NC(=O)[C@H](CC(=O)O)NC(=O)[C@H](Cc2ccc(OCC(=O)O)cc2)NC(=O)[C@H](Cc2ccsc2)NC(=O)CSC[C@@H](C(=O)N[C@@H](CCN)C(=O)NCCOCCOCC(=O)NCCCCCCCCCCC(=O)O)NC1=O` [Example 2503] ({CH2CO}-[3Thi]Y(Carboxymethyl)DWL[Bip]Q[NMeA][dL][Dab][Cha]VK(Ac)C[Dab][AEEA][Aun]-OH; thioether N-14), for which the IC50 is 12.2 nM.

Regarding `CC(C)C[C@@H]1NC(=O)[C@H](Cc2c[nH]c3ccccc23)NC(=O)[C@H](CC(=O)O)NC(=O)[C@H](Cc2ccc(OCC(=O)O)cc2)NC(=O)[C@H](Cc2ccsc2)NC(=O)CSC[C@@H](C(=O)N[C@@H](CCN)C(=O)NCCOCCOCC(=O)NCCCCCCCCCCC(=O)O)NC(=O)[C@H](CCC(=O)O)NC(=O)[C@H](C(C)(C)O)NC(=O)[C@H](CC2CCCCC2)NC(=O)[C@H](CCN)NC(=O)[C@@H](CC(C)C)NC(=O)[C@H](C)N(C)C(=O)[C@H](CCC(N)=O)NC(=O)[C@H](Cc2ccc(-c3ccccc3)cc2)NC1=O` [Example 2504] ({CH2CO}-[3Thi]Y(Carboxymethyl)DWL[Bip]Q[NMeA][dL][Dab][Cha][Val(3-OH)]EC[Dab][AEEA][Aun]-OH; thioether N-14), the IC50 was 13.2 nM.
